Data published in ChEMBL document CHEMBL5523740, “Discovery of Potent and Selective c-Met Degraders for Hepatocellular Carcinoma Treatment” (J Med Chem, 2024).

How the values were obtained:
[1] = tested on: MHCC97H; assay: Antiproliferative activity against human MHCC97H cells incubated for 24 hrs by CCK8 assay; format: functional, cell-based
[2] = target: Hepatocyte growth factor receptor (Homo sapiens, UniProt P08581); assay: Induction of c-Met degradation in human MHCC97H cells at 1 uM incubated for 24 hrs by Western blotting analysis; format: cell-based
[3] = tested on: MHCC97H; assay: Induction of cell cycle arrest in human MHCC97H cells assessed as accumulation of cells at G1 phase at 3 nM incubated for 24 hrs by PI staining based flow cytometry analysis (reference value: 70.4%); format: functional
[4] = tested on: MHCC97H; assay: Induction of cell cycle arrest in human MHCC97H cells assessed as accumulation of cells at G2 phase at 3 nM incubated for 24 hrs by PI staining based flow cytometry analysis (reference value: 19.1%); format: functional
[5] = tested on: MHCC97H; assay: Induction of apoptosis in human MHCC97H cells assessed as viable cells at 3 nM incubated for 24 hrs by Annexin-V-FITC/PI staining based flow cytometry analysis (reference value: 86.3%); format: functional; conditions: read-out: Activity
[6] = tested on: MHCC97H; assay: Induction of apoptosis in human MHCC97H cells assessed as early apoptotic cells at 3 nM incubated for 24 hrs by Annexin-V-FITC/PI staining based flow cytometry analysis (reference value: 7.70%); format: functional
[7] = tested on: MHCC97H; assay: Induction of apoptosis in human MHCC97H cells assessed as late apoptotic cells at 3 nM incubated for 24 hrs by Annexin-V-FITC/PI staining based flow cytometry analysis (reference value: 4.24%); format: functional
[8] = tested on: MHCC97H; assay: Induction of apoptosis in human MHCC97H cells assessed as necrotic cells at 3 nM incubated for 24 hrs by Annexin-V-FITC/PI staining based flow cytometry analysis (reference value: 1.77%); format: functional
[9] = tested on: MHCC97H; assay: Antitumor activity against human MHCC97H cells xenografted in BALB/c mouse assessed as tumor growth inhibition at 20 mg/kg, po qd for 22 days and measured every 2 days; format: functional; conditions: 528 h, time 22 day, read-out: TGI
[10] = Toxicity in BALB/c mouse xenografted with human MHCC97H cells assessed as reduction in body weight at 20 mg/kg, po qd for 22 days and measured every 2 days; format: organism-based; conditions: in vivo, 528 h, time 22 day
[11] = Toxicity in BALB/c mouse xenografted with human MHCC97H cells assessed as liver lesions at 20 mg/kg, po qd for 22 days and measured every 2 days by H and E staining based assay; format: organism-based; conditions: in vivo, 528 h, time 22 day
[12] = Toxicity in BALB/c mouse xenografted with human MHCC97H cells assessed as spleen lesions at 20 mg/kg, po qd for 22 days and measured every 2 days by H and E staining based assay; format: organism-based; conditions: in vivo, 528 h, time 22 day
[13] = Toxicity in BALB/c mouse xenografted with human MHCC97H cells assessed as lung lesions at 20 mg/kg, po qd for 22 days and measured every 2 days by H and E staining based assay; format: organism-based; conditions: in vivo, 528 h, time 22 day
[14] = Toxicity in BALB/c mouse xenografted with human MHCC97H cells assessed as kidney lesions at 20 mg/kg, po qd for 22 days and measured every 2 days by H and E staining based assay; format: organism-based; conditions: in vivo, 528 h, time 22 day
[15] = Toxicity in BALB/c mouse xenografted with human MHCC97H cells assessed as heart lesions at 20 mg/kg, po qd for 22 days and measured every 2 days by H and E staining based assay; format: organism-based; conditions: in vivo, 528 h, time 22 day
[16] = tested on: BaF3; assay: Antiproliferative activity against mouse BaF3 cells harboring TPR-MET fusion protein incubated for 72 hrs by CellTiter-Glo reagent based assay; format: functional, cell-based; conditions: BaF3, 72 h
[17] = tested on: BaF3; assay: Antiproliferative activity against mouse BaF3 cells harboring TPR-MET D1228N mutant fusion protein incubated for 72 hrs by CellTiter-Glo reagent based assay; format: functional, cell-based; conditions: BaF3, 72 h
[18] = tested on: BaF3; assay: Antiproliferative activity against mouse BaF3 cells harboring TPR-MET Y1230H mutant fusion protein incubated for 72 hrs by CellTiter-Glo reagent based assay; format: functional, cell-based; conditions: BaF3, 72 h

Chain of Hepatocyte growth factor receptor (P08581 whole entry): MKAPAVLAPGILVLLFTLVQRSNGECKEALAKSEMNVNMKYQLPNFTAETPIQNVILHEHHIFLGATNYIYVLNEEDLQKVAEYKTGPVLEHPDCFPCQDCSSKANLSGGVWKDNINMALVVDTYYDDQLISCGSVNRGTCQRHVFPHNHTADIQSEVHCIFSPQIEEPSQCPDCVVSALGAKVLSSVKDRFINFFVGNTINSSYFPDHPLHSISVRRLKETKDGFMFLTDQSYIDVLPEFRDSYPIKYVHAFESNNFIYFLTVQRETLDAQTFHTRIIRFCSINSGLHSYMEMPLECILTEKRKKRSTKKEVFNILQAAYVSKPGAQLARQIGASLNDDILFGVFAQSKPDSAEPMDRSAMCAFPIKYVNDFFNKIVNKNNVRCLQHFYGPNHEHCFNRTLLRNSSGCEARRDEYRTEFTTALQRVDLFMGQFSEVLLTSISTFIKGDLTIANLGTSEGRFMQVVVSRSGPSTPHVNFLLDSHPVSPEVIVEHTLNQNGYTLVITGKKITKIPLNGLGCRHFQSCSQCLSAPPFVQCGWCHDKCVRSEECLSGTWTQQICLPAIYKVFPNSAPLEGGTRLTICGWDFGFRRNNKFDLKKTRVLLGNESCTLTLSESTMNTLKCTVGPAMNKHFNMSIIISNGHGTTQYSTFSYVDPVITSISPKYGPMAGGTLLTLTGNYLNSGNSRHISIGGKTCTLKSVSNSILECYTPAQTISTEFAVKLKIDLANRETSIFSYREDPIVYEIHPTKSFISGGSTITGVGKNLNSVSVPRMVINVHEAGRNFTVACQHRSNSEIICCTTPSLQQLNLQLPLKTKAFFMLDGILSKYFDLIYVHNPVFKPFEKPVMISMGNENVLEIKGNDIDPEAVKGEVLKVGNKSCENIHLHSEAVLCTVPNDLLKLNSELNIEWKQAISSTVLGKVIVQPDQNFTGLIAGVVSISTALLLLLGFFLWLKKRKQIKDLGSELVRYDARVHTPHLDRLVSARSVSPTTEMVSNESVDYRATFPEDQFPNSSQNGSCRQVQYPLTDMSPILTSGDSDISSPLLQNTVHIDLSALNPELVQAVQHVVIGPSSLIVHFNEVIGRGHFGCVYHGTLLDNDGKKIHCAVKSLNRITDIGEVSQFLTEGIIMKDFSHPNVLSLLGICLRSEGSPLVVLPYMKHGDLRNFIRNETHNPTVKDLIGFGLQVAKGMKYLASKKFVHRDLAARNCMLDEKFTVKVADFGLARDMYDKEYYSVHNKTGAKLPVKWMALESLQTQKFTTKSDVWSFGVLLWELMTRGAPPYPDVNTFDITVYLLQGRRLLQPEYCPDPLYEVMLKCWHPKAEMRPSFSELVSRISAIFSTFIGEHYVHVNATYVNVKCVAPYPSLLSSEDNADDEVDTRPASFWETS

Row | Structure (SMILES) | IC50 [1] | Activity [2] | other results
1 | N#Cc1cccc(-c2ccc(=O)n(Cc3cccc(-c4ncc(OCC5CCN(CCCC(=O)NCC67CC8CC(CC(C8)C6)C7)CC5)cn4)c3)n2)c1 | 11.8 nM | 40.5% | 
2 | N#Cc1cccc(-c2ccc(=O)n(Cc3cccc(-c4ncc(OCC5CCN(CC(=O)NCCCCCCCCCCNC(=O)CC67CC8CC(CC(C8)C6)C7)CC5)cn4)c3)n2)c1 | 155 nM | < 10% | 
3 | CC(C)[C@@H]1CC[C@@H](C)C[C@H]1OCC(=O)N1CCC(COc2cnc(-c3cccc(Cn4nc(-c5cccc(C#N)c5)ccc4=O)c3)nc2)CC1 | 258 nM | 35.8% | 
4 | N#Cc1cccc(-c2ccc(=O)n(Cc3cccc(-c4ncc(OCC5CCN(C(=O)CC6c7ccccc7-c7ccccc76)CC5)cn4)c3)n2)c1 | 935 nM | 15.8% | 
5 | N#Cc1cccc(-c2ccc(=O)n(Cc3cccc(-c4ncc(OCC5CCN(CC(=O)NCC6CC7C=CC6C7)CC5)cn4)c3)n2)c1 (stereo unspecified) | 73.6 nM | 50.2% | 
6 | N#Cc1cccc(-c2ccc(=O)n(Cc3cccc(-c4ncc(OCC5CCN(CC(=O)NCCCCCCNC(=O)CC67CC8CC(CC(C8)C6)C7)CC5)cn4)c3)n2)c1 | 200 nM | < 10% | 
7 | N#Cc1cccc(-c2ccc(=O)n(Cc3cccc(-c4ncc(OCC5CCN(CC(=O)NCCNC(=O)CC67CC8CC(CC(C8)C6)C7)CC5)cn4)c3)n2)c1 | 40.2 nM | 22.4% | 
8 | N#Cc1cccc(-c2ccc(=O)n(Cc3cccc(-c4ncc(OCC5CCN(C(=O)CC67CC8CC(CC(C8)C6)C7)CC5)cn4)c3)n2)c1 | 67.2 nM | 67.4% | 
9 | N#Cc1cccc(-c2ccc(=O)n(Cc3cccc(-c4ncc(OCC5CCN(CCNC(=O)CC67CC8CC(CC(C8)C6)C7)CC5)cn4)c3)n2)c1 | 22.9 nM | 11.1% | 
10 | CN1CCC(COc2cnc(-c3cccc(Cn4nc(-c5cccc(C#N)c5)ccc4=O)c3)nc2)CC1 [TEPOTINIB] | 3.66 nM |  | Activity [3]: 73.7%; Activity [4]: 16.6%; viability at 0.003 µM [5]: 79.6%; Activity [6]: 13.9%; Activity [7]: 3.84%; Activity [8]: 2.57%; inhibition in vivo at 20 mg/kg [9]: 58.8%; Activity [10]: Non-Toxic; Activity [11]: Non-Toxic; Activity [12]: Non-Toxic; Activity [13]: Non-Toxic; Activity [14]: Non-Toxic; Activity [15]: Non-Toxic; IC50 [16]: 5.3 nM; IC50 [17]: 2030 nM; IC50 [18]: 1840 nM
11 | N#Cc1cccc(-c2ccc(=O)n(Cc3cccc(-c4ncc(OCC5CCN(C(=O)CC(c6ccccc6)c6ccccc6)CC5)cn4)c3)n2)c1 | 128 nM | < 10% | 
12 | N#Cc1cccc(-c2ccc(=O)n(Cc3cccc(-c4ncc(OCC5CCN(CC(=O)NCCCCCCCCNC(=O)CC67CC8CC(CC(C8)C6)C7)CC5)cn4)c3)n2)c1 | 156 nM | < 10% | 
13 | N#Cc1cccc(-c2ccc(=O)n(Cc3cccc(-c4ncc(OCC5CCN(CC(=O)NCCCCNC(=O)CC67CC8CC(CC(C8)C6)C7)CC5)cn4)c3)n2)c1 | 139 nM | < 10% | 
